“Also recorded” adds a separate entry of the source.
Key:
[1] = molecular target: E. coli BL21 overexpressing ClbP (Escherichia coli, UniProt Q0P7K6); experiment: ClbP fluorescence activity assay (live cells); format: cell-based
Method: ClbP fluorescence activity assay (live cells). One 5 mL starter culture each E. coli BL21 pET-29b-ClbP and pET-29b-ClbP-S95A were inoculated from frozen stocks and grown overnight at 37° C. in LB medium supplemented with 50 μg/ml kanamycin (LB+kan). Overnight cultures were diluted 1:100 in fresh LB+kan and incubated at 37° C. to an OD600 of 0.3, at which point protein expression was induced by the addition of 500 μM isopropyl β-D-1-thiogalactopyranoside (IPTG) and cultures were moved to 15° C. for 4 hours. Cultures were then aliquoted in a black 384-well plate and the appropriate concentration of inhibitor was added as a DMSO stocks to a final concentration of 1% DMSO in a volume of 30 μL. Reactions were initiated by the addition of 10 μL of LB+kan+IPTG containing the fluorogenic substrate (final concentration=100 μM). Plastes were incubated at 25° C. with intermittent shaking while taking regular fluorescence measurements in a Bio-Tek Synergy HTX multimode plate reader with an excitation filter of 360/40 nm and an emission filter of 440/20 nm. “% activity” was determined based on the formula above using RFU measurements after 7 hours.

[2] = system: Escherichia coli NC101; experiment: Bacterial MIC assay (broth dilution); format: cell-based; settings: Escherichia coli, NC101, 15 h, read-out: MICs by compound
Method: MICs of compounds against different bacterial species were determined using a modified version of a broth microdilution protocol which has been previously reported.^1 Briefly, cultures of each species indicated were inoculated from frozen stocks in deoxygenated Wilkins-Chalgren Anaerobic Medium (WCAM) inside of an anerobic chamber with an 92.5% N2/5% CO2/2.5% H2 atmosphere. Cultures were grown for 24-48 hours in a 37° C. incubator at which point an OD600-measurement was taken for each culture and was accordingly diluted in fresh WCAM to an equivalent of OD600=0.01. Diluted cultures were then distributed into the wells of a clear, flat-bottom 384-well plate and the compound of interest was added to a final DMSO concentration of 2% (or DMSO only for positive controls). […] mineral oil (Millipore Sigma) was deposited on top of the cultures and plates were covered with a clear adhesive plate seal. Plates were incubated at 37° C. for 16 hours, at which point the OD600 of all wells was recorded on a SpectraMax M2 plate reader (Molecular Devices).

[3] = system: Klebsiella oxytoca; experiment: Bacterial MIC assay (broth dilution); format: cell-based; settings: 15 h, read-out: MICs by compound
[4] = system: Penicillin Binding Proteins (PBPs); experiment: Gel-based ABPP with BOCILLIN-FL probe
From the text: To further explore the specificity of our inhibitors, another ABPP assay was used in which the broad-spectrum FP probe was replaced with a specific probe, BOCILLIN-FL, which targets penicillin binding proteins (PBPs) using a β-lactam warhead. This probe was chosen because of ClbP's homology to AmpC β-lactamases. Since PBPs are targeted by β-lactams, it was reasoned that the similarity of their binding pockets would mean a greater chance of identifying a secondary target among this family of enzymes.

[5] = system: HeLa cells; experiment: HeLa cell survival assay; format: cell-based, human; settings: all concentrations tested
Method: HeLa cells were maintained as described in the General Tissue Culture Methods section. After trypsinization and counting, cells were distributed in to the wells of a 96-well plate with media containing the indicated concentration of the synthetic compound and 1% DMSO (or DMSO alone) at 5000 cells per well. After 20 hours, cell viability was determined using the CellTiter-Glo® 3D Cell Viability Assay kit (Promega) following the manufacturer's instructions and measuring luminescence on a Bio-Tek Synergy HTX™ multimode plate reader.

[6] = system: FANCD2 in HeLa cell extracts; experiment: Western blot for FANCD2; format: cell-based, human; settings: 1 μM 3
Method: Western Blot for FANCD2. Infections were carried out as described above. For conditions which involved other small molecules, no bacteria were introduced during the infection and cells were treated with either 0.5 μg/mL mitomycin C (MMC) or 7.5 μg/mL cisplatin under the same conditions for 4 hours. 20 hours after infection, cells were lysed directly in the culture wells (Lysis buffer: 50 mM Tris, (pH 8.0), 150 mM NaCl, 1% Triton X-100, 0.5% Sodium deoxycholate, 0.05% sodium dodecylsulfate, 1 mM MgSO4, SIGMAFAST Protease inhibitor mix, 100 U/mL benzonase (Millipore-Sigma). Lysates were then spun down at 16,000×g to remove particulates and the supernatant was mixed 1:1 with 2X Laemmli sample buffer (Bio-Rad) containing 50 mg/mL dithiothreitol (DTT). Samples were then heated at 70° C. for 10 minutes and run on an SDS-PAGE gel (3-8% Tris-Acetate Novex gel, Invitrogen) at 150 V for 1.5 hours at 4° C. Bands were then transferred to PVDF membranes (100 V, 1 hour at 4° C.) and blocked with 10% skim milk powder in TBST buffer at 4° C. overnight. Blots were probed sequentially with either mouse anti-actin (1.5 μg/mL) or mouse anti-FANCD2 (0.1 μg/mL) primary antibodies (Thermo Fisher Scientific, Catalog #MA511869 and MA123347), followed by a peroxidase-conjugated goat anti-mouse secondary antibody (Jackson ImmunoResearch product 115-035-003, 0.08 μg/mL). Each probing step was conducted for 90 minutes at room temperature n 2.5% skim milk powder in TBST. Before imaging, blots were washed 3×15 minutes each in TBST […]. Blots were imaged using the SuperSignal™ West Pico PLUS Chemiluminescent Substrate (Thermo Fisher Scientific) kit following the manufacturer's instructions and imaged using an Azure Biosystems c300 imager.

## CC1(C)OB([C@@H](CC(N)=O)NC(=O)CCCc2ccccc2)OC1(C)C [Compound 3]
[1]
  IC50: 18.3 nM
[2]
  MIC: > 200 µM
[3]
  MIC: > 200 µM
[4]; B. cereus ATCC14579 lysate
  competitive binding to BOCILLIN-FL labeled PBPs: none of these PBPs showed any binding; also recorded: no competitive binding
[4]; E. coli NC101 lysate
  competitive binding to BOCILLIN-FL labeled PBPs: none of these PBPs showed any binding; also recorded: no competitive binding
[5]
  concentration without cytotoxicity to human cell lines: > 10 µM
[6]; HeLa cells exposed to pks+ E. coli (NC101)
  FANCD2 ubiquitination in colibactin-exposed cells: prevented this response; also recorded: prevents
[6]; HeLa cells
  effect of 3 on FANCD2-Ub response to MMC or cisplatin: had no impact on the response to MMC or cisplatin
